Experimental data: patent US20040186081A1, “Naaladase inhibitors for treating opioid tolerance” (Guilford Pharmaceuticals Inc., priority 2003, published 2004)
Entries after “also recorded” stand apart in the source; their conditions may differ. Peptide text beside a SMILES is read from it.

Tests used:
[1] = tested on: C57/BL mice; assay: animal or person; type: in vivo; settings: for ED50: Mus musculus, sc
Procedure: (§1) Male C57/BL mice (IMP, Lodz, Poland), 22-24 g of body weight were group-housed in the standard laboratory cages and kept in a temperature-controlled colony room (21+2° C.) with a 12-hr light/dark cycle (light on: 07:00, off: 19:00). Commercial food and tap water were available ad libitum. Each experimental group consisted of 7-28 mice per treatment. All mice were used only once.
(§2) The intensity of the heat stimulus was adjusted so that the baseline tail-flick latency was ˜3 s. […] Each response assessment consisted of two separate measurements taken at different portions of the tail (spaced by 1.5-2 cm) and separated by 15 s. The mean of these responses was used for subsequent comparisons.

[2] = in vivo; cited from earlier work
[3] = tested on: C57/BL mice; assay: Acute effects in the tail-flick test (Experiment 2); type: in vivo
Procedure: as §1, §2

[4] = tested on: over 100 different receptors, ion channels, transporters, and enzymes including NMDA, AMPA, metabotropic glutamate receptors and glutamate transporters; settings: cited from earlier work
[5] = target: T1, NAALADase (Homo sapiens, UniProt Q04609); settings: read-out: Km of NAALADase for NAAG; cited from earlier work
T1 sequence (Q04609 whole entry): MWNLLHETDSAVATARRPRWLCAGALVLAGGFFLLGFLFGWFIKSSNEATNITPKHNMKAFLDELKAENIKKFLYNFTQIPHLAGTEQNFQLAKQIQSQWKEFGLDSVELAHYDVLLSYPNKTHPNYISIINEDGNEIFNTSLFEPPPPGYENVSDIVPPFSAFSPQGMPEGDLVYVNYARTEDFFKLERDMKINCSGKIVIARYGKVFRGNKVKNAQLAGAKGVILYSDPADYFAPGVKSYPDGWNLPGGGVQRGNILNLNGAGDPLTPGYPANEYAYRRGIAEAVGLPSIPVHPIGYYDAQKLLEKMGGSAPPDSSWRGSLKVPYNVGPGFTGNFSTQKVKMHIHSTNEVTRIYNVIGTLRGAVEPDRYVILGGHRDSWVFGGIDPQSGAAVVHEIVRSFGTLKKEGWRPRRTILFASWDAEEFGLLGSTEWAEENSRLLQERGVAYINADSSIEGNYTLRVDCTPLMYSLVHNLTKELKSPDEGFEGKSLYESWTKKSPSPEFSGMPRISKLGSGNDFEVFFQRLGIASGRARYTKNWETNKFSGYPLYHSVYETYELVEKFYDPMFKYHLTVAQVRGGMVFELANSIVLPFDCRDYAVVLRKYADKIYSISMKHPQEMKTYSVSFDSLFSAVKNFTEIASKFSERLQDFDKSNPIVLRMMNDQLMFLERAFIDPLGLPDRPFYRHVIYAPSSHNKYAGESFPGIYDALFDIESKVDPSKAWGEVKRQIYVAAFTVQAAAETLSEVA

[6] = target: mGluRII receptors (mGluR3) (Homo sapiens, UniProt Q14832); settings: read-out: EC50 as direct agonist at mGluRII receptors; cited from earlier work
Sequence of mGluRII receptors (mGluR3) (Q14832 23-879): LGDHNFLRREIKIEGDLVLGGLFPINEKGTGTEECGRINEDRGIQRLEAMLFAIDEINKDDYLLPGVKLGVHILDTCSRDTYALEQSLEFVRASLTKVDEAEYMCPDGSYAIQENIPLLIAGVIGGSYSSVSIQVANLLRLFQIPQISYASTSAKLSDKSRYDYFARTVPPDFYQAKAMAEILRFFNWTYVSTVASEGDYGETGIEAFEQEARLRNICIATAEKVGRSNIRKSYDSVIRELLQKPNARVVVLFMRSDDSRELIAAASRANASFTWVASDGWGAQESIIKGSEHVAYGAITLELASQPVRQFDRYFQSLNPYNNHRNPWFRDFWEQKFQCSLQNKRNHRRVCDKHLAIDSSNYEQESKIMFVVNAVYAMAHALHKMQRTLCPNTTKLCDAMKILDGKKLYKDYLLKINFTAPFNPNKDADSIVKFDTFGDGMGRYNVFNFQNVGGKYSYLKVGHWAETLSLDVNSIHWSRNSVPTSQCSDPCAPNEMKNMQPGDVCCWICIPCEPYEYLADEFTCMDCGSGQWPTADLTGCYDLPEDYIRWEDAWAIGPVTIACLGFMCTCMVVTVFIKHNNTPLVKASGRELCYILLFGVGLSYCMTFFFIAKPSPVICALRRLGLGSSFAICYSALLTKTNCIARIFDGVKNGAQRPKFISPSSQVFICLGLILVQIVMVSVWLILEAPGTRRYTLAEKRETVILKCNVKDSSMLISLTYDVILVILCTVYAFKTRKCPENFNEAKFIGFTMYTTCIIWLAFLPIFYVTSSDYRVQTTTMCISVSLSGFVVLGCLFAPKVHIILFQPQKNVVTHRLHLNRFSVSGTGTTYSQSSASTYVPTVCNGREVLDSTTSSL

[7] = target: T1, NAALADase; assay: In vitro inhibition of NAALADase activity; type: biochemical; settings: for IC50: read-out: IC50

Row | SMILES | IC50 [7] | also measured
1 | CC12CC3CC(C)(C1)CC(N)(C3)C2 [Memantine, memantine] | – | effect on the development of morphine tolerance ([1]; mouse, in vivo): produced an inhibition of morphine tolerance
2 | NC1(C(=O)O)CCC2C(C(=O)O)C21 (single isomer, unassigned; (+)) [LY354740, (+)-2-aminobicyclo [3,1,0] hexane-2,6-dicarboxylic acid] | – | development of morphine tolerance [2]: inhibit the development of morphine tolerance
3 | O=C(O)CCC(CP(=O)(O)O)C(=O)O (stereo not drawn) [2-PMPA, 2-phosphonomethyl pentanedioic acid] | – | effect on antinociceptive effects of morphine ([3]; 100 mg/kg 2-PMPA i.p. 30 min before 1.5 or 3 mg/kg morphine s.c.): did not affect antinociceptive effects; also recorded: did not differ; tail-flick responses (AUC) compared to placebo+placebo ([3]; 100 mg/kg of 2-PMPA i.p. + placebo): did not affect tail-flick responses; also recorded: did not differ from placebo+placebo treatment; affinity for over 100 different receptors, ion channels, transporters, and enzymes [4]: no apparent affinity; effect on the development of morphine tolerance ([1]; 2-PMPA 50 or 100 mg/kg given prior to each dose of morphine): attenuated the development of morphine tolerance
4 | CC(=O)N[C@@H](CC(=O)O)C(=O)N[C@@H](CCC(=O)O)C(=O)O [NAAG, N-acetyl-aspartyl-glutamate] (Ac-Asp-Glu-OH) | – | Km [5]: 0.54 µM; EC50 [6]: ~26000 nM
5 | CC(C)(C)c1cc(CC(CCSCC(=O)NO)C(=O)O)cc(C(=O)O)c1 (stereo not drawn) [3-tert-Butyl-5-(2-carboxy-4-hydroxycarbamoylmethyl-sulfanylbutyl)-benzoic acid] | 1060 nM | –
6 | O=C(O)c1cc(Br)cc(CC(CCCS)C(=O)O)c1 (stereo not drawn) [3-bromo-5-carboxy-alpha-(3-mercaptopropyl)-benzenepropanoic acid] | 2.5 nM | –
7 | O=C(O)c1cccc(-c2ccc(CS)cc2C(=O)O)c1 [4-(mercaptomethyl)-[1,1′-biphenyl]-2,3′-dicarboxylic acid] | 76 nM | –
8 | O=C(O)c1cc(CC(CCCS)C(=O)O)ccc1Cl (stereo not drawn) [3-carboxy-4-chloro-alpha-(3-mercaptopropyl)-benzenepropanoic acid] | 175 nM | –
9 | O=C(O)COc1cccc(CCS)c1C(=O)O [2-(carboxymethoxy)-6-(2-mercaptoethyl)-benzoic acid] | 215 nM | –
10 | O=C(O)c1ccc(C(=O)O)c(S(=O)(=O)c2cc(C(=O)O)ccc2C(=O)O)c1 [2-[(2,5-dicarboxyphenyl)sulfonyl]-1,4-benzenedicarboxylic acid] | – | Ki [7]: 1870 nM
11 | O=C(O)c1c(CCS)cccc1Oc1ccccc1 [2-(2-mercaptoethyl)-6-phenoxy-benzoic acid] | 1150 nM | –
12 | O=C(O)c1cc(CS)cc(C(=O)O)c1 [5-mercaptomethyl-1,3-benzenedicarboxylic acid] | – | Ki [7]: 6500 nM
13 | CN1CC[C@]23c4c5ccc(O)c4O[C@H]2[C@@H](O)C=C[C@H]3[C@H]1C5 [Morphine] | – | ED50 ([3]; Mus musculus, sc, read-out: antinociceptive ED50 dose): 3 mg/kg; ED50 ([1]; 24 h, read-out: Test #1 ED50 (morphine antinociceptive)): 1.49 ± 0.26 mg/kg; ED50 ([1]; 192 h, read-out: Test #2 ED50 (morphine antinociceptive)): 8.85 ± 2.22 mg/kg
14 | O=C(O)C(CCCS)Cc1ccccc1Cl (stereo not drawn) [2-chloro-alpha-(3-mercaptopropyl)-benzenepropanoic acid] | 1350 nM | –
15 | CC(C)(C)c1cc(CC(CCCS)C(=O)O)cc(C(=O)O)c1 (stereo not drawn) [3-carboxy-5-(1,1-dimethylethyl)-alpha-(3-mercaptopropyl)-benzenepropanoic acid] | 0.05 nM | –
16 | O=C(O)c1ccc(COc2ccc(CCS)c(C(=O)O)c2)cc1 [5-[(4-carboxyphenyl)methoxy]-2-(2-mercaptoethyl)-benzoic acid] | 71.5 nM | –
17 | CCC(SCCC(Cc1cccc(C(=O)O)c1)C(=O)O)C(=O)NO (stereo not drawn) [3-[2-Carboxy-4-(1-hydroxycarbamoyl-propylsulfanyl)-butyl]-benzoic acid] | 19000 nM | –
18 | O=C(CCCOc1cccc(-c2cccc(C(=O)O)c2)c1C(=O)O)NO [3-(3-Hydroxycarbamoyl-propoxy)-biphenyl-2,3′-dicarboxylic acid] | 9100 nM | –
19 | O=C(O)c1ccc(C(=O)O)c(Sc2ccccc2C(=O)O)c1 [2-[(2-carboxyphenyl)thio]-1,4-benzenedicarboxylic acid] | – | Ki [7]: 572 nM
20 | O=C(O)C(CCCS)Oc1ccccc1 (stereo not drawn) [5-mercapto-2-phenoxy-pentanoic acid] | 555 nM | –
21 | N#Cc1ccccc1-c1ccc(CC(CCCS)C(=O)O)cc1 (stereo not drawn) [4-(2-cyanophenyl)-alpha-(3-mercaptopropyl)-benzenepropanoic acid] | 316 nM | –
22 | O=C(NO)c1cc(OCC(F)(F)F)ccc1OCC(F)(F)F [N-Hydroxy-2,5-bis-(2,2,2-trifluoro-ethoxy)-benzamide] | ≥ 100000 nM | –
23 | O=C(O)CNc1cc(C(=O)O)cc(C(=O)O)c1 [5-[(carboxymethyl)amino]-1,3-benzenedicarboxylic acid] | – | Ki [7]: 100000 nM
24 | O=C(O)C(CCCS)Cc1ccccc1 (stereo not drawn) [alpha-(3-mercaptopropyl)-benzenepropanoic acid] | 2270 nM | –
